{"source": "ChEMBL document CHEMBL4011599", "about": "“Coumarin sulfonates: New alkaline phosphatase inhibitors; in vitro and in silico studies” (Eur J Med Chem, 2017)", "key": {"[1]": {"target": "T1, Intestinal-type alkaline phosphatase (Homo sapiens, UniProt P09923)", "experiment": "Inhibition of human IAP using CDP-star as substrate pretreated for 10 mins followed by substrate addition measured after 10 mins by […] method; call rule not given here"}, "[2]": {"target": "T2, Alkaline phosphatase, tissue-nonspecific isozyme (Homo sapiens, UniProt P05186)", "T2 sequence (P05186 whole entry)": "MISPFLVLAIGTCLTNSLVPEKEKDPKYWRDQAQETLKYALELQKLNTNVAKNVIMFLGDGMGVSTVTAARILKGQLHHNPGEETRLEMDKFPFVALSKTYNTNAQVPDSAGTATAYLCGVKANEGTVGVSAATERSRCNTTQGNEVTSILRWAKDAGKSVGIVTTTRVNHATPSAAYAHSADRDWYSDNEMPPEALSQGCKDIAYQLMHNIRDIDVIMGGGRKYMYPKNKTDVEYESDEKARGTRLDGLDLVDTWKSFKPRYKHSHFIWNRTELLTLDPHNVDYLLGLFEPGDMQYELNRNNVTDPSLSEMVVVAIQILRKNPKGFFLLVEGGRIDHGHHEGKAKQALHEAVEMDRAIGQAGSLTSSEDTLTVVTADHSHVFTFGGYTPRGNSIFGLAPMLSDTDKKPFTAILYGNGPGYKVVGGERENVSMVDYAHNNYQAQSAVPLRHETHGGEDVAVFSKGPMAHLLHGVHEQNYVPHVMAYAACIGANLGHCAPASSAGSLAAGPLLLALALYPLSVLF", "experiment": "Inhibition of human TNAP using CDP-star as substrate pretreated for 10 mins followed by substrate addition measured after 10 mins by […] method"}, "[3]": {"target": "T1, Intestinal-type alkaline phosphatase", "experiment": "Potency index, ratio of levamisole IC50 to compound IC50 for human IAP"}}, "data": [{"smiles": "Cc1c(C#N)c(=O)oc2cc(OS(C)(=O)=O)ccc12", "values": [{"measurement": "IC50", "setting": "[1]", "result": "Not Active"}, {"measurement": "IC50", "setting": "[2]; read-out: IC50", "result": 1990, "unit": "nM"}]}, {"smiles": "c1ccc([C@H]2CN3CCSC3=N2)cc1", "note": "[LEVAMISOLE]", "values": [{"measurement": "IC50", "setting": "[1]; read-out: IC50", "result": 20200, "unit": "nM"}]}, {"smiles": "CCS(=O)(=O)Oc1ccc2c(C)c(C#N)c(=O)oc2c1", "values": [{"measurement": "IC50", "setting": "[1]; read-out: IC50", "result": 4060, "unit": "nM"}, {"measurement": "IC50", "setting": "[2]", "result": "Not Active"}]}, {"smiles": "Cc1cc(=O)oc2cc(OS(=O)(=O)c3ccc(Cl)c([N+](=O)[O-])c3)ccc12", "values": [{"measurement": "IC50", "setting": "[1]; read-out: IC50", "result": 2720, "unit": "nM"}, {"measurement": "IC50", "setting": "[2]; read-out: IC50", "result": 2310, "unit": "nM"}]}, {"smiles": "Cc1c(C#N)c(=O)oc2cc(OS(=O)(=O)c3ccccc3)ccc12", "values": [{"measurement": "IC50", "setting": "[1]", "result": "Not Active"}, {"measurement": "IC50", "setting": "[2]; read-out: IC50", "result": 3530, "unit": "nM"}]}, {"smiles": "CCCCCCCCS(=O)(=O)Oc1ccc2c(C)c(C#N)c(=O)oc2c1", "values": [{"measurement": "IC50", "setting": "[1]; read-out: IC50", "result": 2810, "unit": "nM"}, {"measurement": "IC50", "setting": "[2]; read-out: IC50", "result": 920, "unit": "nM"}, {"measurement": "Ratio IC50", "setting": "[3]", "result": 7}]}, {"smiles": "N[C@@H](Cc1ccccc1)C(=O)O", "note": "[PHENYLALANINE]", "values": [{"measurement": "IC50", "setting": "[2]; read-out: IC50", "result": 100000, "unit": "nM"}]}, {"smiles": "Cc1c(C#N)c(=O)oc2cc(OS(=O)(=O)c3cc(Cl)ccc3Cl)ccc12", "values": [{"measurement": "IC50", "setting": "[1]; read-out: IC50", "result": 2260, "unit": "nM"}, {"measurement": "IC50", "setting": "[2]; read-out: IC50", "result": 2470, "unit": "nM"}]}, {"smiles": "CCCCS(=O)(=O)Oc1ccc2c(C)c(Cl)c(=O)oc2c1", "values": [{"measurement": "IC50", "setting": "[1]; read-out: IC50", "result": 3220, "unit": "nM"}, {"measurement": "IC50", "setting": "[2]; read-out: IC50", "result": 1640, "unit": "nM"}]}, {"smiles": "Cc1c(Cl)c(=O)oc2cc(OS(=O)(=O)c3ccccc3)ccc12", "values": [{"measurement": "IC50", "setting": "[1]; read-out: IC50", "result": 5520, "unit": "nM"}, {"measurement": "IC50", "setting": "[2]; read-out: IC50", "result": 10300, "unit": "nM"}]}, {"smiles": "CCCCCCCCS(=O)(=O)Oc1ccc2c(C)cc(=O)oc2c1OS(=O)(=O)CCCCCCCC", "values": [{"measurement": "IC50", "setting": "[1]; read-out: IC50", "result": 10300, "unit": "nM"}, {"measurement": "IC50", "setting": "[2]; read-out: IC50", "result": 920, "unit": "nM"}]}, {"smiles": "Cc1c(C#N)c(=O)oc2cc(OS(=O)(=O)c3cccc([N+](=O)[O-])c3)ccc12", "values": [{"measurement": "IC50", "setting": "[1]; read-out: IC50", "result": 5160, "unit": "nM"}, {"measurement": "IC50", "setting": "[2]; read-out: IC50", "result": 2420, "unit": "nM"}]}]}
